In ChEMBL document CHEMBL1201862, “PubChem BioAssay data set” (2004):
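Compound exposure: 48 hours, 5 concentrations, 96-well plates. GI50 = concentration required for 50% inhibition of growth.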 The source made the active and inactive calls. No stated cut-off is given here; in the data, active = GI50 up to about 1.1 µM and inactive = higher.

How the values were obtained:
Assay in all cases: NCI tumour cell line growth inhibition, 48 h
MDA-MB-231 = system: MDA-MB-231
HCT-116 = system: HCT-116
MDA-N = system: MDA-N
NCI-H23 = system: NCI-H23
UO-31 = system: UO-31
SN12C = system: SN12C
HT-29 = system: HT-29
OVCAR-8 = system: OVCAR-8
HOP-62 = system: HOP-62
TK-10 = system: TK-10
NCI-H460 = system: NCI-H460
PC-3 = system: PC-3
M14 = system: M14
NCI-H522 = system: NCI-H522
UACC-62 = system: UACC-62
EKVX = system: EKVX
SF-539 = system: SF-539
HCC 2998 = system: HCC 2998
SR = system: SR

Measured: GI50

O=C1NC(=O)C(C(c2ccc([N+](=O)[O-])cc2)C2C(=O)NC(=O)NC2=O)C(=O)N1
inactive: MDA-MB-231 > 100 µM | HCT-116 > 100 µM | MDA-N > 100 µM | NCI-H23 > 100 µM | UO-31 > 100 µM | SN12C > 100 µM | HT-29 > 100 µM | OVCAR-8 > 100 µM | HOP-62 > 100 µM | TK-10 > 100 µM | NCI-H460 > 100 µM | PC-3 > 100 µM | M14 > 100 µM | NCI-H522 > 100 µM | UACC-62 > 100 µM

NS(=O)(=O)c1nnc(NC(=O)Nc2ccc(Cl)c(Cl)c2)s1
inactive: MDA-MB-231 25.9 µM | HCT-116 19.5 µM | MDA-N 20.5 µM | NCI-H23 18 µM | UO-31 27.4 µM | SN12C 19.3 µM | HT-29 16.7 µM | EKVX 28.8 µM | OVCAR-8 20.4 µM | SF-539 19 µM | HOP-62 17.8 µM | HCC 2998 18.7 µM | SR 21.9 µM | TK-10 20.6 µM | NCI-H460 19.1 µM | M14 16.8 µM | NCI-H522 11.7 µM | UACC-62 16.2 µM

CCCCCCc1ccc(CCCCCCCC(=O)O)o1
inactive: HCT-116 68.5 µM | MDA-N > 100 µM | NCI-H23 > 100 µM | UO-31 > 100 µM | SN12C > 100 µM | HT-29 46.2 µM | EKVX > 100 µM | OVCAR-8 > 100 µM | SF-539 > 100 µM | HOP-62 > 100 µM | HCC 2998 > 100 µM | SR 44 µM | NCI-H460 > 100 µM | PC-3 > 100 µM | M14 > 100 µM

O=[N+]([O-])c1cccc2nnccc12
inactive: MDA-MB-231 > 10 µM | HCT-116 12.1 µM | MDA-N 17.6 µM | NCI-H23 23.3 µM | UO-31 28.6 µM | SN12C 26.1 µM | HT-29 20.3 µM | EKVX 36.5 µM | OVCAR-8 31.9 µM | SF-539 48 µM | TK-10 46.3 µM | NCI-H460 19.1 µM | PC-3 31.8 µM | M14 24.3 µM | NCI-H522 3.71 µM | UACC-62 13.6 µM

CCOP(=O)(OCC)C(F)(F)c1ccc(CC(NC(=O)OC(C)(C)C)C(=O)O)cc1 (stereo unspecified)
inactive: MDA-MB-231 > 10 µM | HCT-116 > 10 µM | MDA-N > 10 µM | NCI-H23 > 10 µM | UO-31 > 10 µM | SN12C > 10 µM | HT-29 > 10 µM | EKVX > 10 µM | OVCAR-8 > 10 µM | SF-539 > 10 µM | HOP-62 5.15 µM | HCC 2998 > 10 µM | TK-10 > 10 µM | NCI-H460 > 10 µM | PC-3 > 10 µM | M14 > 10 µM | UACC-62 > 10 µM

O=c1cccc2n1CC1CNC[C@H]2C1 [CYTISINICLINE]
inactive: MDA-MB-231 > 100 µM | HCT-116 > 100 µM | MDA-N > 100 µM | NCI-H23 > 100 µM | UO-31 > 100 µM | SN12C > 100 µM | HT-29 > 100 µM | EKVX > 100 µM | OVCAR-8 > 100 µM | HOP-62 > 100 µM | HCC 2998 > 100 µM | TK-10 > 100 µM | NCI-H460 > 100 µM | PC-3 > 100 µM | M14 > 100 µM | NCI-H522 > 100 µM | UACC-62 > 100 µM

Cc1cc2c(cc1C)[n+]([O-])c(NCCCN(C)C)c(C#N)[n+]2[O-]
inactive: HCT-116 73.3 µM | MDA-N > 100 µM | NCI-H23 80.9 µM | UO-31 > 100 µM | SN12C 82.4 µM | HT-29 61.5 µM | EKVX 68.5 µM | OVCAR-8 > 100 µM | SF-539 > 100 µM | HOP-62 > 100 µM | HCC 2998 88.3 µM | SR 13.2 µM | TK-10 > 100 µM | NCI-H460 26.2 µM | PC-3 > 100 µM | M14 > 100 µM | NCI-H522 57.4 µM | UACC-62 76.4 µM

CCSC1=N/C(=C\c2ccco2)C(NN)=N1
inactive: MDA-MB-231 > 50 µM | HCT-116 > 50 µM | MDA-N > 50 µM | NCI-H23 > 50 µM | UO-31 > 50 µM | SN12C > 50 µM | HT-29 > 50 µM | EKVX > 50 µM | OVCAR-8 > 50 µM | SF-539 > 50 µM | HOP-62 > 50 µM | TK-10 > 50 µM | NCI-H460 > 50 µM | PC-3 > 50 µM | M14 > 50 µM | NCI-H522 > 50 µM | UACC-62 > 50 µM

Nc1ccc(S(=O)(=O)c2ccc(/N=[N+](\[O-])c3ccc(S(=O)(=O)c4ccc(N)cc4)cc3)cc2)cc1
inactive: MDA-MB-231 35.8 µM | HCT-116 46.5 µM | NCI-H23 34.8 µM | UO-31 > 100 µM | SN12C > 68.9 µM | HT-29 > 100 µM | EKVX 50 µM | OVCAR-8 41.2 µM | SF-539 18.9 µM | HOP-62 20.4 µM | HCC 2998 > 100 µM | SR > 61.4 µM | TK-10 > 44.1 µM | NCI-H460 66.5 µM | PC-3 > 55.3 µM | M14 99.3 µM | NCI-H522 17.9 µM | UACC-62 > 50 µM
